Reference: the NIST ThermoML archive (doi:10.1016/j.jct.2018.11.011)

O=C([O][Sb]([c]1ccccc1)([c]1ccccc1)([c]1ccccc1)[c]1ccccc1)c1ccccc1 [tetraphenylantimony benzoate]
101.33 kPa
Details | mass density [kg/m3] | molar entropy [J/K/mol]
5 K, Crystal, Small (less than 1 g) adiabatic calorimetry | – | 0.567
10 K, Crystal, Small (less than 1 g) adiabatic calorimetry | – | 4.1
15 K, Crystal, Small (less than 1 g) adiabatic calorimetry | – | 11.1
20 K, Crystal, Small (less than 1 g) adiabatic calorimetry | – | 20.79
25 K, Crystal, Small (less than 1 g) adiabatic calorimetry | – | 31.83
30 K, Crystal, Small (less than 1 g) adiabatic calorimetry | – | 43.78
35 K, Crystal, Small (less than 1 g) adiabatic calorimetry | – | 56.29
40 K, Crystal, Small (less than 1 g) adiabatic calorimetry | – | 69.07
45 K, Crystal, Small (less than 1 g) adiabatic calorimetry | – | 81.95
50 K, Crystal, Small (less than 1 g) adiabatic calorimetry | – | 94.78
60 K, Crystal, Small (less than 1 g) adiabatic calorimetry | – | 120.2
70 K, Crystal, Small (less than 1 g) adiabatic calorimetry | – | 145.3
80 K, Crystal, Small (less than 1 g) adiabatic calorimetry | – | 169.9
90 K, Crystal, Small (less than 1 g) adiabatic calorimetry | – | 194.1
100 K, Crystal, Small (less than 1 g) adiabatic calorimetry | – | 217.6
120 K, Crystal, Small (less than 1 g) adiabatic calorimetry | – | 262.3
140 K, Crystal, Small (less than 1 g) adiabatic calorimetry | – | 305.1
160 K, Crystal, Small (less than 1 g) adiabatic calorimetry | – | 346.3
180 K, Crystal, Small (less than 1 g) adiabatic calorimetry | – | 386.3
200 K, Crystal, Small (less than 1 g) adiabatic calorimetry | – | 425.4
220 K, Crystal, Small (less than 1 g) adiabatic calorimetry | – | 463.9
240 K, Crystal, Small (less than 1 g) adiabatic calorimetry | – | 501.9
260 K, Crystal, Small (less than 1 g) adiabatic calorimetry | – | 539.8
273.15 K, Crystal, Small (less than 1 g) adiabatic calorimetry | – | 564.6
280 K, Crystal, Small (less than 1 g) adiabatic calorimetry | – | 577.5
298.15 K, Crystal, Small (less than 1 g) adiabatic calorimetry | – | 611.7
298.15 K, Crystal, X-ray diffraction | 1438 | –
300 K, Crystal, Small (less than 1 g) adiabatic calorimetry | – | 615.3
320 K, Crystal, Small (less than 1 g) adiabatic calorimetry | – | 653.4
340 K, Crystal, Small (less than 1 g) adiabatic calorimetry | – | 691
360 K, Crystal, Small (less than 1 g) adiabatic calorimetry | – | 729
380 K, Crystal, Small (less than 1 g) adiabatic calorimetry | – | 768
400 K, Crystal, Small (less than 1 g) adiabatic calorimetry | – | 807
420 K, Crystal, Small (less than 1 g) adiabatic calorimetry | – | 848
437.5 K, Crystal, Small (less than 1 g) adiabatic calorimetry | – | 881
437.5 K, Liquid, DSC | – | 940
440 K, Liquid, DSC | – | 948
460 K, Liquid, DSC | – | 989
480 K, Liquid, DSC | – | 1030

Details | Normal melting temperature [°C]
Crystal, DTA | 164.4
